Measured values: PubChem BioAssay (NCI)
Several values for one entry are separate records, joined by “and”; a condition that tells them apart may be missing. Equal values may be shown once.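 Test compounds were applied to cells in 96-well plates for 48 hours at 5 doses. Here, GI50 denotes the concentration required for 50% inhibition of growth. At the TGI there is no net growth.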

What was measured:
Assay in all cases: growth of human tumour cells (NCI), 48 h
RPMI-8226 leukemia = test system: RPMI-8226 leukemia
DU-145 prostate = test system: DU-145 prostate
LOX IMVI melanoma = test system: LOX IMVI melanoma
NCI-H522 lung = test system: NCI-H522 lung
OVCAR-4 ovarian = test system: OVCAR-4 ovarian
HT29 colon = test system: HT29 colon
MDA-MB-231 breast = test system: MDA-MB-231 breast
A549 NSCLC = test system: A549 NSCLC
U251 CNS = test system: U251 CNS
SNB-19 CNS = test system: SNB-19 CNS
SN12C renal = test system: SN12C renal
HS 578T breast = test system: HS 578T breast
BT-549 breast = test system: BT-549 breast
786-0 renal = test system: 786-0 renal
OVCAR-3 ovarian = test system: OVCAR-3 ovarian
SK-MEL-28 melanoma = test system: SK-MEL-28 melanoma
SK-OV-3 ovarian = test system: SK-OV-3 ovarian
A498 renal = test system: A498 renal
SR leukemia = test system: SR leukemia
PC-3 prostate = test system: PC-3 prostate
NCI/ADR-RES ovarian = test system: NCI/ADR-RES ovarian
HCT-15 colon = test system: HCT-15 colon
COLO 205 colon = test system: COLO 205 colon
OVCAR-8 ovarian = test system: OVCAR-8 ovarian
KM12 colon = test system: KM12 colon
SW-620 colon = test system: SW-620 colon
HL-60(TB) leukemia = test system: HL-60(TB) leukemia
MCF7 breast = test system: MCF7 breast
EKVX NSCLC = test system: EKVX NSCLC

## CC(=O)O[C@H]1C[C@H](O[C@H]2[C@@H](O)C[C@H](O[C@H]3[C@@H](O)C[C@H](O[C@H]4CC[C@@]5(C)C(CCC6C5C[C@@H](O)[C@]5(C)[C@@H](C7=CC(=O)OC7)CC[C@]65O)C4)O[C@@H]3C)O[C@@H]2C)O[C@H](C)[C@H]1O[C@@H]1O[C@H](CO)[C@@H](O)[C@H](O)[C@H]1O (some centres not stated)
RPMI-8226 leukemia
  GI50: 68.2 nM and 200 nM
  TGI: 315 nM and 955 nM
DU-145 prostate
  GI50: 13.8 nM and 110 nM
  TGI: 38.7 nM and 232 nM
LOX IMVI melanoma
  GI50: 26.1 nM and 81.8 nM
  TGI: 93.7 nM and 238 nM
NCI-H522 lung
  GI50: 10.7 nM and 37.5 nM
  TGI: 37.6 nM and 126 nM
OVCAR-4 ovarian
  GI50: 122 nM
  TGI: 442 nM
HT29 colon
  GI50: 24.6 nM and 120 nM
  TGI: 86.8 nM and 395 nM
MDA-MB-231 breast
  GI50: 238 nM and 234 nM
  TGI: 1350 nM and 652 nM
A549 NSCLC
  GI50: 9.03 nM and 31.9 nM
  TGI: 16.5 nM and 108 nM
U251 CNS
  GI50: 29.8 nM and 113 nM
  TGI: 91 nM and 234 nM
SNB-19 CNS
  GI50: 69.2 nM and 212 nM
  TGI: 256 nM and 557 nM
SN12C renal
  GI50: 20 nM and 47.1 nM
  TGI: 581 nM and 413 nM
HS 578T breast
  TGI: 1640 nM
BT-549 breast
  GI50: 39.4 nM
  TGI: 129 nM
786-0 renal
  GI50: 25.1 nM and 105 nM
  TGI: 89.4 nM and 223 nM
OVCAR-3 ovarian
  GI50: 18.6 nM and 93.2 nM
  TGI: 65.6 nM and 218 nM
SK-MEL-28 melanoma
  GI50: 115 nM and 215 nM
  TGI: 237 nM and 496 nM
SK-OV-3 ovarian
  GI50: 28.7 nM and 160 nM
  TGI: 99.6 nM and 314 nM
A498 renal
  GI50: 78 nM
  TGI: 412 nM
SR leukemia
  GI50: 15.1 nM and 44 nM
  TGI: 97.7 nM and 281 nM
PC-3 prostate
  GI50: 28.7 nM and 103 nM
  TGI: 225 nM and 590 nM
NCI/ADR-RES ovarian
  GI50: 23.3 nM and 76.4 nM
  TGI: 86.1 nM and 250 nM
HCT-15 colon
  GI50: 58.7 nM and 200 nM
  TGI: 174 nM and 465 nM
COLO 205 colon
  GI50: 284 nM
  TGI: 676 nM
OVCAR-8 ovarian
  GI50: 38.5 nM and 159 nM
  TGI: 104 nM and 385 nM
KM12 colon
  GI50: 31.9 nM and 161 nM
  TGI: 140 nM and 382 nM
SW-620 colon
  GI50: 23.8 nM and 63.1 nM
  TGI: 86 nM and 302 nM
HL-60(TB) leukemia
  GI50: 11.2 nM
  TGI: 28.3 nM
MCF7 breast
  GI50: 24.8 nM and 57.5 nM
  TGI: 189 nM and 694 nM
EKVX NSCLC
  GI50: 22.4 nM and 56.6 nM
  TGI: 83.6 nM and 202 nM
